Entries after “also recorded” stand apart in the source; their conditions may differ.
How the values were obtained:
[1] = system: DTH reaction mounted against OXA (pinna thickness); experiment: Skin DTH response to OXA challenge, hormones given at sensitization (immunization) phase; type: in vivo, rat; conditions: hormone ip 2 h before sensitization with 1.5% OXA: epinephrine 0.5 mg/kg, corticosterone 5 mg/kg, or both; OXA ear challenge six days after immunization
Procedure: (§1) Young adult, male Sprague Dawley rats (150-300 g) (Harlan Sprague Dawley, Indianapolis, Ind.) were housed in plastic cages in the accredited (American Association of Accreditation of Laboratory Animal Care) animal facilities of The Rockefeller University (New York, N.Y.). The animal room was maintained on a 12 h light-dark cycle (lights on 7 am). Animals were given rat chow and water ad libitum.
This was necessary for restoring important permissive functions of corticosterone which are lost following ADX (18-20). […] Unlike constant replacement (via pellets or osmotic pumps), drinking water corticosterone also facilitates the normal termination of a stress-induced ACTH response (22, 23), and simulates the circadian corticosterone rhythm as animals drink at the beginning of the active period (16).
No anesthesia was used subsequently. An area of approximately 3×4 cm was shaved on the dorsum. The thickness of both pinnae was recorded using a constant-loading dial micrometer (Mitutoyo, Japan).
On day 5, baseline pinna thickness was measured. […] Left pinnae were treated with vehicle.
The immune reaction induced using the above procedure, is characterized by swelling at the site of challenge, and by an infiltration of monocytes/macrophages and lymphocytes into the epidermis and dermis (29-31). […]

[2] = system: skin DTH, DNFB challenge (pinna thickness); experiment: Skin DTH response, hormones given before DNFB challenge of previously sensitized animals; type: in vivo, rat
Procedure: as §1
(§2) Bilateral adrenalectomy (ADX) was performed using standard aseptic surgical techniques on animals fully anesthetized with the inhalant, methoxyflurane (Metofane; Pitman-Moore, Washington Crossing, N.J.). Sham adrenalectomized (SHAM) animals went through exactly the same procedure as ADX animals except that their adrenals were not removed. ADX animals were maintained on a low normalizing dose of corticosterone (20 μg/ml) administered through drinking choice of water or 3% saline. This was necessary for restoring important permissive functions of corticosterone which are lost following ADX (18-20). […] Unlike constant replacement (via pellets or osmotic pumps), drinking water corticosterone also facilitates the normal termination of a stress-induced ACTH response (22, 23), and simulates the circadian corticosterone rhythm as animals drink at the beginning of the active period (16).
The concentration and timing of each hormone administered is listed in the text and 3 0 figures. […] Epinephrine (Research Biochemicals International) was dissolved in sterile water.
DTH was induced by challenging the pinnae of previously sensitized rats with 2,4-dinitro-1-fluorobenzene (DNFB, Sigma, St. Louis, Mo.) or oxazalone (OXA, Sigma, St. Louis, Mo). On day 1 of sensitization, animals were anesthetized with the inhalant, methoxyflurane (Metofane; Pitman-Moore, Washington Crossing, N.J.). No anesthesia was used subsequently. An area of approximately 3×4 cm was shaved on the dorsum. The thickness of both pinnae was recorded using a constant-loading dial micrometer (Mitutoyo, Japan). On days 1 and 2 of sensitization, one hundred microliters of DNFB (1% (w/v) in 4:1, acetone:olive oil) or one hundred microliters of OXA (1.5% (w/v) in ethanol) were applied to the shaved dorsum. On day 5, baseline pinna thickness was measured. On day 6, after stress or hormone administration, the dorsal surface of the right pinnae of all animals was challenged with 50 μl of DNFB (0.5% in 4:1 acetone:olive oil) or OXA (0.75% in ethanol). Left pinnae were treated with vehicle. Pinna thickness was measured at the times shown. Measurements were made (on same relative region of pinna) gently and rapidly to avoid displacing or compressing edema fluid and changing pinna thickness.
The immune reaction induced using the above procedure, is characterized by swelling at the site of challenge, and by an infiltration of monocytes/macrophages and lymphocytes into the epidermis and dermis (29-31). A positive correlation between the intensity of the immune reaction and the increase in pinna thickness has been reported (32, 33). This model for skin DTH reactions has been widely used to monitor cell-mediated immune responses in vivo (30, 34).
For all experiments, repeated measures were made on each animal. Significant differences between timepoints within a specific leukocyte subpopulation were analyzed using the Student's t-test as a test for significant differences between means. […] Data are expressed as mean ±SEM in all figures. A computer statistics package was used for statistical analyses (SYSTAT v5.2.1, Systat Inc., Evanston, Ill.).

[3] = system: skin DTH, OXA challenge (pinna thickness); experiment: Skin DTH response, hormones given before OXA challenge of previously sensitized ADX animals; type: in vivo, rat; conditions: for skin DTH vs vehicle: epinephrine 0.5 mg/kg, corticosterone 5 mg/kg, or both, OXA (0.75%) challenge 2 h after hormone administration
Procedure: as §1, §2
The concentration and timing of each hormone administered is listed in the text and 3 0 figures. […]
DTH was induced by challenging the pinnae of previously sensitized rats with 2,4-dinitro-1-fluorobenzene (DNFB, Sigma, St. Louis, Mo.) or oxazalone (OXA, Sigma, St. Louis, Mo). […] The thickness of both pinnae was recorded using a constant-loading dial micrometer (Mitutoyo, Japan). […] On day 5, baseline pinna thickness was measured. […] Pinna thickness was measured at the times shown. […]
For all experiments, repeated measures were made on each animal. Significant differences between timepoints within a specific leukocyte subpopulation were analyzed using the Student's t-test as a test for significant differences between means. […] Data are expressed as mean ±SEM in all figures. […]

[4] = system: lymphocytes in cervical lymph nodes; experiment: Cellularity of cervical lymph nodes draining the site of the skin DTH reaction; type: in vivo, rat; conditions: ADX animals, epinephrine 0.5 mg/kg, corticosterone 5 mg/kg, or both, OXA challenge 2 h after administration, 48 h after antigen exposure
Procedure: Animals were rapidly sacrificed and cervical lymph nodes were dissected and placed in sterile PBS on ice (n=3 per treatment group). Each lymph node was subsequently weighed and disrupted between the frosted ends of two microscope slides. Suspensions of leukocytes were prepared in PBS and stored on ice for cell counting, immunofluorescent staining, and flow cytometry. White blood cell counts and lymphocyte-neutrophil differentials were obtained on a hematology analyzer (F800, Sysmex, McGraw Park, Ill.). Specific leukocyte subtypes were measured by immunofluorescent antibody staining and subsequent analysis using three color flow cytometry (FACScan, Becton Dickinson, San Jose, Calif.). T cells were identified using the following monoclonal antibodies (Caltag, Burlingame, Calif.): CD3-FITC (1F4), CD4-PE (w3/25), CD8-TC (OX8). Briefly, cell suspensions were incubated with antibody for 20 min at room temperature, washed with PBS, and read on the FACScan with 3,000 to 5,000 events being acquired from each preparation. Appropriate isotype controls were used to set the negative criteria. Data were analyzed using Cell Quest software (Becton Dickinson, San Jose, Calif.). For all experiments, repeated measures were made on each animal. Significant differences between timepoints within a specific leukocyte subpopulation were analyzed using the Student's t-test as a test for significant differences between means. […] Data are expressed as mean ±SEM in all figures. A computer statistics package was used for statistical analyses (SYSTAT v5.2.1, Systat Inc., Evanston, Ill.).

[5] = molecular target: T1, corticosteroid binding globulin (Homo sapiens, UniProt P08185); conditions: plasma protein; cited from earlier work
T1 sequence (P08185 23-405): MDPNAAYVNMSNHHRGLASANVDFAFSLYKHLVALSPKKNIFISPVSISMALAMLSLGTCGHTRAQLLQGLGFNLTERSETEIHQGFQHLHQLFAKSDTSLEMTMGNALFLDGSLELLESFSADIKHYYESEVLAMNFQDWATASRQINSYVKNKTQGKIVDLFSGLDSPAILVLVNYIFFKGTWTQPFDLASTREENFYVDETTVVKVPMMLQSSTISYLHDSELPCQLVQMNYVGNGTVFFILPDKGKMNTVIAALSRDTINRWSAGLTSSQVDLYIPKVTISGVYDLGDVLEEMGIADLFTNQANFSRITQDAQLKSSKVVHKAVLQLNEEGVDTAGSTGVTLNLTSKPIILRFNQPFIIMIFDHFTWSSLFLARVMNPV

Structure (SMILES) | DTH response (immune reaction at challenge or recall phase) vs vehicle [1] | skin DTH vs vehicle ([2]; corticosterone 400 μg/ml in drinking water, chronic (6 days), DNFB challenge) | skin DTH vs vehicle ([2]; corticosterone 400 μg/ml in drinking water, chronic (6 days), DNFB challenge, listed as Corticosterone) | skin DTH vs vehicle ([2]; corticosterone 5 mg/kg ip, acute, ADX animals, DNFB challenge two hours after administration) | skin DTH vs vehicle ([2]; corticosterone 5 mg/kg ip, acute, ADX animals, DNFB challenge two hours after administration, listed as Corticosterone) | skin DTH vs vehicle ([2]; corticosterone 100 or 400 μg/ml in drinking water for four hours (acute), adrenal-intact animals, DNFB challenge) | skin DTH vs vehicle ([2]; corticosterone 100 or 400 μg/ml in drinking water for four hours (acute), adrenal-intact animals, DNFB challenge, listed as Corticosterone) | skin DTH vs vehicle ([2]; corticosterone high dose 40 mg/kg, acute, ADX animals, DNFB challenge) | skin DTH vs vehicle ([2]; corticosterone high dose 40 mg/kg, acute, ADX animals, DNFB challenge, listed as Corticosterone) | immuno-enhancement of skin DTH compared with epinephrine ([3]; corticosterone 5 mg/kg vs epinephrine 500 μg/kg, OXA challenge 2 h after administration) | skin DTH vs vehicle [3] | lymphocyte numbers in cervical lymph nodes vs vehicle [4] | binding to corticosteroid binding globulin [5] | skin DTH vs vehicle ([2]; epinephrine 0.05, 0.25, 0.5 mg/kg, acute, ADX animals, DNFB challenge two hours after administration) | skin DTH vs vehicle ([2]; epinephrine 0.05, 0.25, 0.5 mg/kg, acute, ADX animals, DNFB challenge two hours after administration, listed as Epinephrine) | lymphocyte numbers in cervical lymph nodes vs vehicle ([4]; listed as Epinephrine)
C[C@]12C[C@H](O)[C@H]3[C@@H](CCC4=CC(=O)CC[C@@]43C)[C@@H]1CC[C@@H]2C(=O)CO [corticosterone] | enhance the immune reaction observed during the challenge or recall phase of DTH | significantly suppressed skin DTH | lower DTH responses than control animals | significant enhancement of skin DTH | significantly larger DTH response than vehicle treated animals | significant enhancement of skin DTH; also recorded: enhanced the DTH response | significantly larger DTH response than vehicle treated animals | significantly suppressed skin DTH | lower DTH responses than control animals | greater than that induced by epinephrine | enhanced skin DTH; also recorded: enhanced DTH response | significantly larger numbers of lymphocytes in cervical lymph nodes; also recorded: higher lymphocyte numbers in cervical lymph nodes | binds a large proportion of circulating corticosterone |  |  | 
CNC[C@H](O)c1ccc(O)c(O)c1 [epinephrine, reference compound] | enhance the immune reaction observed during the challenge or recall phase of DTH |  |  |  |  |  |  |  |  |  | enhanced skin DTH; also recorded: enhanced DTH response | significantly larger numbers of lymphocytes in cervical lymph nodes |  | significant dose-dependent enhancement of skin DTH | dose dependent increase in skin DTH | higher lymphocyte numbers in cervical lymph nodes
